In one assay the target is Beta-secretase 1 (Homo sapiens, UniProt P56817).
The next assay deals with T1, Beta-secretase 2 (Homo sapiens, UniProt Q9Y5Z0).
T1 sequence (Q9Y5Z0 whole entry): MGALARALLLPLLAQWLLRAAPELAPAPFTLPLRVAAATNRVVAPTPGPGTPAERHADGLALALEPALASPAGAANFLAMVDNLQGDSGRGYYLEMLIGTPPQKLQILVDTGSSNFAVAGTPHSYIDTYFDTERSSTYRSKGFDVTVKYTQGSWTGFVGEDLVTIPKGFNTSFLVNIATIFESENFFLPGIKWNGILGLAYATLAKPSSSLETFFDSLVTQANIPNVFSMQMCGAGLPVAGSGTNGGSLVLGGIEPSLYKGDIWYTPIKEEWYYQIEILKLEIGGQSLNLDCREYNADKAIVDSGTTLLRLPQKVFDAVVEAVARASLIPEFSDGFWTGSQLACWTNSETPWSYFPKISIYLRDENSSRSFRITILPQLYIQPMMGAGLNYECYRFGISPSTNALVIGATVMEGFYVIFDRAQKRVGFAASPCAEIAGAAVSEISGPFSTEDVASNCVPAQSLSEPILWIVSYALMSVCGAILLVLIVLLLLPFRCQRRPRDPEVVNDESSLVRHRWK
Briefly: Inhibition of BACE2 expressed in human 293T cells. The class given is cell-based.

In the next assay the test system is N2a. The assay is described as follows: Reduction of amyloid beta40 level in mouse N2A cells expressing Swedish mutant human APP695 at 10 uM after 24 hrs by ELISA. It counts as functional. More on the design: scale not given: the % may be the effect or the level left.

In ChEMBL document CHEMBL1139259, “Molecular modeling, synthesis, and activity studies of novel biaryl and fused-ring BACE1 inhibitors” (Bioorg Med Chem Lett, 2009) one finds IC50 and Activity data, which are given here for 17 compounds.

The term IC50 denotes the concentration that inhibits the measured activity by half.

Sequence of Beta-secretase 1 (P56817 whole entry): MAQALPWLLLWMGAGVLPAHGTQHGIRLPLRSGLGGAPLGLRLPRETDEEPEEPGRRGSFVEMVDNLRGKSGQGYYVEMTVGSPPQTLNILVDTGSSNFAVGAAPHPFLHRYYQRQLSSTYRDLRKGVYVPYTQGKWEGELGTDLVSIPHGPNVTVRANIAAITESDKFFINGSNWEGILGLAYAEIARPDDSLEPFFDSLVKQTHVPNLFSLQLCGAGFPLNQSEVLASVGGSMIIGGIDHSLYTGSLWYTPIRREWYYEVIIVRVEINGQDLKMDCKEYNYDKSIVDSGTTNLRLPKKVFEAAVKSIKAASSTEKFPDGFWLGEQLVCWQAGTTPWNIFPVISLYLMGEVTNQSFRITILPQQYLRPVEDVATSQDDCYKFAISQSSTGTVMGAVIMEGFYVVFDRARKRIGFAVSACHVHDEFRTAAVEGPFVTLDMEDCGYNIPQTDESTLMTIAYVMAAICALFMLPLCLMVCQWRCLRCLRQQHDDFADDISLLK
Description for Beta-secretase 1: Inhibition of BACE1 expressed in human 293T cells

As to `C[C@@H](NC(=O)c1cc2c(c(C(=O)N[C@@H](Cc3ccccc3)[C@H](O)CNC3CC3)c1)CCCO2)c1ccccc1`, the IC50 at Beta-secretase 1 is 0.112 µM; on Beta-secretase 2 it was greater than 100 µM.
As for `C[C@@H](NC(=O)c1cc(C(=O)N[C@@H](Cc2ccccc2)[C@H](O)CNC2CC2)cc(N2CCCS2(=O)=O)c1)c1ccccc1`, the IC50 amounted to 1.77 µM at Beta-secretase 1 and 0.141 µM on Beta-secretase 2.
With `C[C@@H](NC(=O)c1cc(C(=O)N[C@@H](Cc2ccccc2)[C@H](O)CNC2CC2)cc2c1CCCO2)c1ccccc1`, the results for the IC50 against Beta-secretase 1 and at Beta-secretase 2 were 0.063 µM and greater than 100 µM, respectively. In addition, in the assay with N2a, the Activity was 65%.
Consider `Cc1cc2c(C(=O)N[C@H](C)c3ccccc3)cc(C(=O)N[C@@H](Cc3ccccc3)[C@H](O)CNC3CC3)cc2o1`, for which the IC50 against Beta-secretase 1 is 0.524 µM; against Beta-secretase 2, greater than 100 µM.
Consider `C[C@@H](NC(=O)c1cc(C(=O)N[C@@H](Cc2ccccc2)[C@H](O)CNC2CC2)cc2c1CCCCO2)c1ccccc1`, for which the half-inhibitory concentration (IC50) on Beta-secretase 1 was 0.056 µM; at Beta-secretase 2, greater than 100 µM. The compound further yielded an Activity with N2a of 35%.
For `C#Cc1cc(C(=O)N[C@@H](Cc2ccccc2)[C@H](O)CNC2CC2)cc(C(=O)N[C@H](C)c2ccccc2)c1`, the figures for the IC50 at Beta-secretase 1 and against Beta-secretase 2 were 0.889 µM and greater than 100 µM, respectively.
For `C[C@@H](NC(=O)c1cc(C(=O)N[C@@H](Cc2ccccc2)[C@H](O)CNC2CC2)cc(-c2ccc(Cl)cc2)c1)c1ccccc1` the same measures were 0.811 µM and greater than 100 µM.
The like results for `C[C@@H](NC(=O)c1cc(C(=O)N[C@@H](Cc2ccccc2)[C@H](O)CNC2CC2)cc(N2CCCCS2(=O)=O)c1)c1ccccc1` were, in that order, 0.158 µM and 0.251 µM.
For `C[C@@H](NC(=O)c1cc(C(=O)N[C@@H](Cc2ccccc2)[C@H](O)CNC2CC2)cc(-c2cn(Cc3ccccc3)nn2)c1)c1ccccc1` the same measures were 1.26 µM and greater than 100 µM.
In the case of `C[C@@H](NC(=O)c1cc(O)cc(C(=O)N[C@@H](Cc2ccccc2)[C@H](O)CNC2CC2)c1)c1ccccc1`, the results for the 50% inhibitory concentration (IC50) at Beta-secretase 1 and against Beta-secretase 2 were 1.58 µM and greater than 100 µM, respectively.
The like results for `C[C@@H](NC(=O)c1cc(C#Cc2ccccc2)cc(C(=O)N[C@@H](Cc2ccccc2)[C@H](O)CNC2CC2)c1)c1ccccc1` were, in that order, 1.12 µM and greater than 100 µM.
Consider `C[C@@H](NC(=O)c1cc(C(=O)N[C@@H](Cc2ccccc2)[C@H](O)CNC2CC2)cc(-c2ccsc2)c1)c1ccccc1`, for which the results for the half-maximal inhibitory concentration (IC50) against Beta-secretase 1 and against Beta-secretase 2 were 2.23 µM and greater than 100 µM, respectively.
Take `C[C@@H](NC(=O)c1cc(C(=O)N[C@@H](Cc2ccccc2)[C@H](O)CNC2CC2)cc2c1CCCCO2)c1ccc(F)cc1`: the concentration for half-maximal inhibition (IC50) against Beta-secretase 1 is 0.262 µM; against Beta-secretase 2, 1.95 µM.
In the case of `COc1cc(C(=O)N[C@@H](Cc2ccccc2)[C@H](O)CNC2CC2)cc(C(=O)N[C@H](C)c2ccccc2)c1`, the 50% inhibitory concentration (IC50) was 2.51 µM on Beta-secretase 1 and greater than 100 µM on Beta-secretase 2.
For `C[C@@H](NC(=O)c1cc2c(c(C(=O)N[C@@H](Cc3ccccc3)[C@H](O)CNC3CC3)c1)CCCCO2)c1ccccc1` the same measures were 0.089 µM and greater than 100 µM.
The like results for `C[C@@H](NC(=O)c1cc(C(=O)N[C@@H](Cc2ccccc2)[C@H](O)CNC2CC2)cc2c1CCCO2)c1ccc(F)cc1` were, in that order, 0.74 µM and 2.09 µM.
For `Cc1cc2c(C(=O)N[C@@H](Cc3ccccc3)[C@H](O)CNC3CC3)cc(C(=O)N[C@H](C)c3ccccc3)cc2o1` the same measures were 0.998 µM and greater than 100 µM.
